Biological target: T1, AHR (UniProt P35869)
T1 construct: IC50
T1 sequence (P35869 1-848): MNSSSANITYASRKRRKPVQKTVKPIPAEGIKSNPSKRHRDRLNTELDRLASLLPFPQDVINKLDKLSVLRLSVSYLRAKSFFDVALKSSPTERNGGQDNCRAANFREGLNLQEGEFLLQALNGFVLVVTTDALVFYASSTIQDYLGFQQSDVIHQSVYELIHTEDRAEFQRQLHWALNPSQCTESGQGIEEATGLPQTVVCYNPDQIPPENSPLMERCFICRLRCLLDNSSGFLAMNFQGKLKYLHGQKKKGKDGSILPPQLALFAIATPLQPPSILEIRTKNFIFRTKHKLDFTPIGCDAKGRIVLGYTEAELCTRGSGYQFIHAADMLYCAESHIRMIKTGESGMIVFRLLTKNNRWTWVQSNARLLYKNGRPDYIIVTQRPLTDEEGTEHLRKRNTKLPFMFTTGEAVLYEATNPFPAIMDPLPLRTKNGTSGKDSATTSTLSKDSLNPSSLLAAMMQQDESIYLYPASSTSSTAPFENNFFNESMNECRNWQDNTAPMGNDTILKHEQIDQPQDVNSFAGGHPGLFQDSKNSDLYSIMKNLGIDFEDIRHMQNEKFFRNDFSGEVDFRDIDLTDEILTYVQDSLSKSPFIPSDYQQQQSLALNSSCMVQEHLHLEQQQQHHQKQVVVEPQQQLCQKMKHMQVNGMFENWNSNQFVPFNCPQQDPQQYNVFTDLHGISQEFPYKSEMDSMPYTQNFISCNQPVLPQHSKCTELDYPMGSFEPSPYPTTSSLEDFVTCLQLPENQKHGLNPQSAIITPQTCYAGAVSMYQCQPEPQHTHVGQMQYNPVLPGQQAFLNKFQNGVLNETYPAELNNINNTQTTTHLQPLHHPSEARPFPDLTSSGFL
Assay: DRE-Luciferase Reporter Assay (Alternate Method) (Example 1B)
Type: cell-based, murine or human
Conditions: cell line and AHR activating ligand not specified
Procedure: AHR binds to Dioxin Responsive Elements (DRE) upstream of genes that it activates. One measure of AHR activity is activation of a reporter gene, such as luciferase, downstream of one or multiple DRE elements. Luciferase activity will reflect activation and inhibition of AHR in the cells expressing his reporter.
Murine Hepa1-6 or Hepa-1c1c7 or other murine cell line with a DRE-luciferase reporter either stably or transiently transfected were plated in media in plates (96-well, 384-well or other plates) and incubated overnight at 37° C. in a CO2 incubator or compound and agonist were added at the time of plating. Likewise, human HepG2 or other human cell line with a DRE-luciferase reporter either stably or transiently transfected were plated in media in plates (96-well, 384-well or other plates) and incubated overnight at 37° C. in a CO2 incubator or compound and agonist were added at the time of plating.
At the time that cells are plated or following incubation overnight, an AHR activating ligand, such as TCDD, kynurenine, ITE (2-(1H-indole-3-ylcarbonyl)-4-thiazolecarboxylic methyl ester), VAF347, BNF (beta-naphthoflavone), FICZ (6-formylindolo(3,2-b) carbazole or other AHR ligands, was added with or without AHR antagonist.
Cells were incubated for 4, 15 or 24 hours or another time point and then lysed for determination of luciferase activity as a read-out of the AHR activation or inhibition. Luciferase was measured with a commercial kit such as the Promega Luciferase kit or any kit or reagents that provide the luciferin substrate for measuring luciferase activity. The level of luciferase with only activating ligand added was the maximum signal while the luciferase with no ligand was the minimum signal. IC50 values were determined as the concentration which inhibits half of the luciferase activity.

Row | IC50 [nM] | Structure (SMILES)
1 | > 1500 | CC(C)c1cnn2c(N[C@H]3CCc4cn[nH]c4C3)cc(-c3cncc(F)c3)nc12 (single isomer, unassigned) [I-32a]
2 | > 1500 | CC(C)c1cnn2c(N[C@H]3Cc4ccc(O)cc4C3)cc(-c3cncc(C#N)c3)nc12 (single isomer, unassigned) [I-37a]
3 | > 1500 | CC(C)c1cnn2c(N[C@H]3CCc4[nH]ncc4C3)cc(-c3cncc(F)c3)nc12 (single isomer, unassigned) [I-42a]
4 | > 1500 | CC(C)c1cnn2c(NC3CCc4cc(O)ccc4C3)cc(-c3cncc(F)c3)nc12 (stereo in doubt) [I-82b, (2R)-2-[[5-(5-fluoro-3-pyridyl)-3-isopropyl-pyrazolo[1,5-a]pyrimidin-7-yl]amino]tetralin-6-ol]
5 | 1000 to 1500 | CC(C)c1cnn2c(NC3Cc4[nH]c5ccccc5c4C3)nc(-c3cncc(F)c3)nc12 (stereo in doubt) [I-263a, (2S)—N-[2-(5-Fluoro-3-pyridyl)-8-isopropyl-pyrazolo[1,5-a][1,3,5]triazin-4-yl]-1,2,3,4-tetrahydrocyclopenta[b]indol-2-amine]
6 | > 1500 | CC(C)n1cnc2c(NCCc3c[nH]c4ccncc34)nc(-c3cncc(F)c3)nc21 [I-8, 2-(5-Fluoro-3-pyridyl)-9-isopropyl-N-[2-(1H-pyrrolo[3,2-c]pyridin-3-yl)ethyl]purin-6-amine]
7 | > 1500 | CC(C)n1cnc2c(NCCn3c(=O)[nH]c4ccccc43)nc(-c3cncc(F)c3)nc21 [I-10, 3-[2-[[2-(5-Fluoro-3-pyridyl)-9-isopropyl-purin-6-yl]amino]ethyl]-1H-benzimidazol-2-one]
8 | < 500 | Cc1[nH]c2c(F)cc(F)cc2c1CCNc1nc(-c2cncc(F)c2)nc2c1ncn2C(C)C [I-11, N-(2-(5,7-Difluoro-2-methyl-1H-indol-3-yl)ethyl)-2-(5-fluoropyridin-3-yl)-9-isopropyl-9H-purin-6-amine]
9 | > 1500 | CC(C)n1cnc2c(NCCn3cnc4ccccc43)nc(-c3cncc(F)c3)nc21 [I-13, N-(2-(1H-Benzo[d]imidazol-1-yl)ethyl)-2-(5-fluoropyridin-3-yl)-9-isopropyl-9H-purin-6-amine]
10 | > 1500 | CC(C)n1cnc2c(NCCc3cn(C)c4ccccc34)nc(-c3cncc(F)c3)nc21 [I-14, 2-(5-Fluoropyridin-3-yl)-9-isopropyl-N-(2-(1-methyl-1H-indol-3-yl)ethyl)-9H-purin-6-amine]
11 | < 500 | CC(C)n1cnc2c(NCCc3cnc4ccccn34)nc(-c3cncc(F)c3)nc21 [I-15, 2-(5-Fluoro-3-pyridyl)-N-(2-imidazo[1,2-a]pyridin-3-ylethyl)-9-isopropyl-purin-6-amine]
12 | < 500 | CC(C)Nc1cc(NCCc2c[nH]c3ccccc23)nc(-c2cncc(F)c2)n1 [I-20, 2-(5-Fluoro-3-pyridyl)-N6-[2-(1H-indol-3-yl)ethyl]-N4-isopropyl-pyrimidine-4,6-diamine]
13 | < 500 | CC(C)n1cnc2c(NCCc3cn4ccccc4n3)nc(-c3cncc(F)c3)nc21 [I-22, 2-(5-Fluoro-3-pyridyl)-N-(2-imidazo[1,2-a]pyridin-2-ylethyl)-9-isopropyl-purin-6-amine]
14 | < 500 | CC(C)n1cnc2c(NCCc3c[nH]c4c(F)cc(F)cc34)nc(-c3cncc(F)c3)nc21 [I-23, N-[2-(5,7-Difluoro-1H-indol-3-yl)ethyl]-2-(5-fluoro-3-pyridyl)-9-isopropyl-purin-6-amine]
15 | > 1500 | O=C(c1cnn2c(N[C@@H]3CCc4[nH]c5ccccc5c4C3)cc(-c3cncc(F)c3)nc12)N1CCOCC1 [I-24, [5-(5-Fluoro-3-pyridyl)-7-[[(3R)-2,3,4,9-tetrahydro-1H-carbazol-3-yl]amino]pyrazolo[1,5-a]pyrimidin-3-yl]-morpholino-methanone]
16 | > 1500 | CON(C)C(=O)c1cnn2c(N[C@@H]3CCc4[nH]c5ccccc5c4C3)cc(-c3cncc(F)c3)nc12 [I-25, 5-(5-Fluoro-3-pyridyl)-N-methoxy-N-methyl-7-[[(3R)-2,3,4,9-tetrahydro-1H-carbazol-3-yl]amino]pyrazolo[1,5-a]pyrimidine-3-carboxamide]
17 | > 1500 | CC(C)c1cnn2c(N[C@@H]3CCc4[nH]c5ccccc5c4C3)cc(-c3ccccc3)nc12 [I-26, (3R)—N-(3-isopropyl-5-phenyl-pyrazolo[1,5-a]pyrimidin-7-yl)-2,3,4,9-tetrahydro-1H-carbazol-3-amine]
18 | > 1500 | CC(C)c1cnn2c(NC[C@@H](C)c3ccc(O)cc3)cc(-c3cncc(F)c3)nc12 [I-28a, 4-[(1S)-2-[[5-(5-fluoro-3-pyridyl)-3-isopropyl-pyrazolo[1,5-a]pyrimidin-7-yl]amino]-1-methyl-ethyl]phenol]
19 | > 1500 | CN1CCN(C(=O)c2cnn3c(N[C@@H]4CCc5[nH]c6ccccc6c5C4)cc(-c4cncc(F)c4)nc23)CC1 [I-29, [5-(5-Fluoro-3-pyridyl)-7-[[(3R)-2,3,4,9-tetrahydro-1H-carbazol-3-yl]amino]pyrazolo[1,5-a]pyrimidin-3-yl]-(4-methylpiperazin-1-yl)methanone]
20 | > 1500 | CC(C)c1cnn2c(NCCc3c[nH]c4ccccc34)ccnc12 [I-31, N-[2-(1H-indol-3-yl)ethyl]-3-isopropyl-pyrazolo[1,5-a]pyrimidin-7-amine]
21 | < 500 | CC(O)c1cnn2c(NCCc3c[nH]c4ccccc34)cc(-c3cncc(F)c3)nc12 (stereo not drawn) [I-33, 1-[5-(5-Fluoro-3-pyridyl)-7-[2-(1H-indol-3-yl)ethylamino]pyrazolo[1,5-a]pyrimidin-3-yl]ethanol]
22 | > 1500 | Cc1cnn2c(N[C@@H]3CCc4[nH]c5ccccc5c4C3)cc(-c3cncc(F)c3)nc12 [I-34, (3R)—N-[5-(5-Fluoro-3-pyridyl)-3-methyl-pyrazolo[1,5-a]pyrimidin-7-yl]-2,3,4,9-tetrahydro-1H-carbazol-3-amine]
23 | > 1500 | Fc1cncc(-c2cc(N[C@@H]3CCc4[nH]c5ccccc5c4C3)n3ncc(C(F)(F)F)c3n2)c1 [I-35, (3R)—N-[5-(5-Fluoro-3-pyridyl)-3-(trifluoromethyl)pyrazolo[1,5-a]pyrimidin-7-yl]-2,3,4,9-tetrahydro-1H-carbazol-3-amine]
24 | > 1500 | CC(C)c1cnn2c(N[C@@H]3CCc4[nH]c5ccccc5c4C3)cc(-c3cncc(C#N)c3)nc12 [I-38, 5-[3-Isopropyl-7-[[(3R)-2,3,4,9-tetrahydro-1H-carbazol-3-yl]amino]pyrazolo[1,5-a]pyrimidin-5-yl]pyridine-3-carbonitrile]
25 | > 1500 | Fc1cncc(-c2cc(N[C@@H]3CCc4[nH]c5ccccc5c4C3)n3nccc3n2)c1 [I-41, (3R)—N-[5-(5-Fluoro-3-pyridyl)pyrazolo[1,5-a]pyrimidin-7-yl]-2,3,4,9-tetrahydro-1H-carbazol-3-amine]
26 | 500 to 1000 | N#Cc1cncc(-c2cc(NCCc3c[nH]c4ccccc34)n3nccc3n2)c1 [I-43, 5-[7-[2-(1H-Indol-3-yl)ethylamino]pyrazolo[1,5-a]pyrimidin-5-yl]pyridine-3-carbonitrile]
27 | > 1500 | CC(C)c1cnn2c(NC3Cc4ccccc4C3)cc(-c3cncc(F)c3)nc12 [I-44, 5-(5-Fluoro-3-pyridyl)-N-indan-2-yl-3-isopropyl-pyrazolo[1,5-a]pyrimidin-7-amine]
28 | < 500 | CC(C)n1cnc2c(NC3Cc4ccc(O)cc4C3)nc(-c3cncc(F)c3)nc21 (stereo not drawn) [I-48, 2-[[2-(5-fluoro-3-pyridyl)-9-isopropyl-purin-6-yl]amino]indan-5-ol]
29 | < 500 | Oc1ccc(CCNc2cc(-c3cncc(F)c3)nc3ccnn23)cc1 [I-49, 4-[2-[[5-(5-Fluoro-3-pyridyl)pyrazolo[1,5-a]pyrimidin-7-yl]amino]ethyl]phenol]
30 | > 1500 | Fc1cncc(-c2cc(NC3Cc4cc5c(cc4C3)OCO5)n3nccc3n2)c1 [I-50, N-(6,7-Dihydro-5H-cyclopenta[f][1,3]benzodioxol-6-yl)-5-(5-fluoro-3-pyridyl)pyrazolo[1,5-a]pyrimidin-7-amine]
